Experimental data taken from doi:10.1101/2023.11.23.568446v1 (bioRxiv, 2023).
Bridge positions count the residues as written; N and C are the ends. Square brackets hold non-standard residues; d marks the D form. Peptide text beside a SMILES is read from it. * marks the point of attachment. X1 = CC[C@H](C)CCCCC(=O)*; Dab = NCC[C@H](N)C(=O)O

Tests used:
[1] = test system: DHA10 (CRAB); test: Checkerboard assay; assay type: cell-based, Acinetobacter baumannii; conditions: for MIC in combination, Antibiotic: in combination with AIG-R5
[2] = test system: A. baumannii ATCC 17978; test: Checkerboard assay; assay type: cell-based, Acinetobacter baumannii; conditions: for MIC alone, Antibiotic: A. baumannii ATCC 17978
[3] = test system: A. baumannii isolates; test: Antibiotic resistance profile of isolates; assay type: cell-based, Acinetobacter baumannii
[4] = test system: A. baumannii biofilms; conditions: at 128µM (64×MIC); ref Kim et al., 2018; cited from earlier work

Compound | MIC in combination, Antibiotic [1] [µg/mL] | MIC alone, Antibiotic [2] [µg/mL] | MIC in combination, Antibiotic ([2]; in combination with AIG-R1) [µg/mL] | MIC in combination, Antibiotic ([2]; in combination with AIG-R4) [µg/mL] | MIC in combination, Antibiotic ([2]; in combination with AIG-R5) [µg/mL] | Antibiotic resistance profile ([3]; strain 17978) | Antibiotic resistance profile ([3]; strain Ci 3) | Antibiotic resistance profile ([3]; strain Ci 6) | Antibiotic resistance profile ([3]; strain Ci 7) | Antibiotic resistance profile ([3]; strain DHA 8) | Antibiotic resistance profile ([3]; strain DHA 10) | Antibiotic resistance profile ([3]; strain P-1119) | Antibiotic resistance profile ([3]; strain P-1131) | Antibiotic resistance profile ([3]; strain P-1139) | Antibiotic resistance profile ([3]; strain P-1169) | Antibiotic resistance profile ([3]; strain P-1182) | MIC alone, Antibiotic [1] [µg/mL] | degraded pre-formed biofilms [4] [%]
NCC[C@H](O)C(=O)N[C@@H]1C[C@H](N)[C@@H](O[C@H]2O[C@H](CN)[C@@H](O)[C@H](O)[C@H]2O)[C@H](O)[C@H]1O[C@H]1O[C@H](CO)[C@@H](O)[C@H](N)[C@H]1O [Amikacin] | 256 | 2 | 0.5 | 1 | 0.5 |  |  |  |  |  |  |  |  |  |  |  |  | 
CC[C@H](C)CCCCC(=O)N[C@@H](CCN)C(=O)N[C@H](C(=O)N[C@@H](CCN)C(=O)N[C@H]1CCNC(=O)[C@H]([C@@H](C)O)NC(=O)[C@H](CCN)NC(=O)[C@H](CCN)NC(=O)[C@H](CC(C)C)NC(=O)[C@@H](CC(C)C)NC(=O)[C@H](CCN)NC1=O)[C@@H](C)O [Colistin] (X1-[Dab]T[Dab][Dab][Dab][dL]L[Dab][Dab]T; lactam 4-C (inferred); N-terminus assumed) |  | 1 | 0.25 | 0.25 | 0.5 | S | R | R | R | R | R | R | R | R | R | R |  | 
C[C@@H](O)[C@H]1C(=O)N2C(C(=O)O)=C(SCCN=CN)C[C@H]12 [Imipenem] |  | 2 | 1 | 1 | 1 | S | R | R | R | R | R | R | R | R | R | R |  | 
NC[C@H]1O[C@H](O[C@H]2[C@H](O)[C@@H](O[C@H]3O[C@H](CO)[C@@H](O)[C@H](N)[C@H]3O)[C@H](N)C[C@@H]2N)[C@H](O)[C@@H](O)[C@@H]1O.O=S(=O)(O)O [Kanamycin sulphate] |  | 4 | 2 | 2 | 1 |  |  |  |  |  |  |  |  |  |  |  |  | 
C[C@@H](O)[C@H]1C(=O)N2C(C(=O)O)=C(S[C@@H]3CN[C@H](C(=O)N(C)C)C3)[C@H](C)[C@H]12 [Meropenem] |  |  |  |  |  | S | R | R | R | R | R | R | R | R | R | R |  | 
CO[C@H]1/C=C/O[C@@]2(C)Oc3c(C)c(O)c4c(O)c(cc(O)c4c3C2=O)NC(=O)/C(C)=C\C=C\[C@H](C)[C@H](O)[C@@H](C)[C@@H](O)[C@@H](C)[C@H](OC(C)=O)[C@@H]1C [Rifamycin] |  | 4 | 2 | 2 | 2 |  |  |  |  |  |  |  |  |  |  |  |  | 
NC[C@H]1O[C@H](O[C@H]2[C@H](O)[C@@H](O[C@H]3O[C@H](CO)[C@@H](O)[C@H](N)[C@H]3O)[C@H](N)C[C@@H]2N)[C@H](N)C[C@@H]1O [Tobramycin] | 128 | 2 | 1 | 1 | 0.5 |  |  |  |  |  |  |  |  |  |  |  | 512 | 
magainin 2 |  |  |  |  |  |  |  |  |  |  |  |  |  |  |  |  |  | 33.3
